Experimental data from patent US11292782B2, “Diarylhydantoin compounds and methods of use thereof” (Nuvation Bio Inc., priority 2018, dated 2022).
Like-named read-outs stand apart in the source and are kept apart here.

Key:
Type in all cases: cell-based
[1] = target: GFP-AR (Homo sapiens (Human), UniProt P10275)
Method: COS cells plated in chamber slides in DME+5% csFBS without phenol red were transfected with […] GFP-AR using lipofectamine reagent.

[2] = tested on: LNCaP-abl cells; assay: Cell proliferation assay, LNCaP-abl (CellTiter-Glo); details: 72 h, 3 days; for activity at 3 µM: read-out: cell proliferation, % of vehicle at 3 μM; for activity at 10 µM: read-out: cell proliferation, % of vehicle at 10 μM
Method: (§1) LNCaP-abl (3,000 cells/well, received from Dr. Myles Brown, Dana Farber Cancer Institute), 22RV1 (1,000 cells/well), LNCaP (5,000 cells/well), or COS (3,000 cells/well) cells were plated in 96 well plates in 50 μl RPMI+10% FBS (Fisher Scientific, Waltham, Mass.). LNCaP, COS, and 22RV1 cells were obtained from ATCC. Cells were treated in RPMI+10% FBS with test articles, ranging from 1 nM to 10 μM. Three days later, viable cells (LNCaP-abl, 22RV1, and COS) were measured by CellTiter-Glo assay (Promega, Madison, Wis.). For LNCaP cells, medium containing test article was changed after 3 days of treatment, and after an additional 3 days of culture, viable cells were measured by CellTiter-Glo assay.
(§2) The LNCaP cell line is androgen responsive with AR and PSA expression. It contains a T877A mutation in the AR. The 22RV1 cell line is positive for AR and PSA with additional AR splice variants and is insensitive to androgen for cell proliferation. The LNCaP-abl cell line expresses both AR and GR but is insensitive to androgen for cell proliferation. COS-7 is used as an AR negative cell line in this experiment.

[3] = target: T1, Human AR (Homo sapiens (Human), UniProt P10275); assay: AR agonist assay (GRE-LUC luciferase, transfected HEK-293 cells, test article alone); details: HEK-293 transfected with human AR, read-out: AR Agonist IC50
T1 sequence (P10275 whole entry): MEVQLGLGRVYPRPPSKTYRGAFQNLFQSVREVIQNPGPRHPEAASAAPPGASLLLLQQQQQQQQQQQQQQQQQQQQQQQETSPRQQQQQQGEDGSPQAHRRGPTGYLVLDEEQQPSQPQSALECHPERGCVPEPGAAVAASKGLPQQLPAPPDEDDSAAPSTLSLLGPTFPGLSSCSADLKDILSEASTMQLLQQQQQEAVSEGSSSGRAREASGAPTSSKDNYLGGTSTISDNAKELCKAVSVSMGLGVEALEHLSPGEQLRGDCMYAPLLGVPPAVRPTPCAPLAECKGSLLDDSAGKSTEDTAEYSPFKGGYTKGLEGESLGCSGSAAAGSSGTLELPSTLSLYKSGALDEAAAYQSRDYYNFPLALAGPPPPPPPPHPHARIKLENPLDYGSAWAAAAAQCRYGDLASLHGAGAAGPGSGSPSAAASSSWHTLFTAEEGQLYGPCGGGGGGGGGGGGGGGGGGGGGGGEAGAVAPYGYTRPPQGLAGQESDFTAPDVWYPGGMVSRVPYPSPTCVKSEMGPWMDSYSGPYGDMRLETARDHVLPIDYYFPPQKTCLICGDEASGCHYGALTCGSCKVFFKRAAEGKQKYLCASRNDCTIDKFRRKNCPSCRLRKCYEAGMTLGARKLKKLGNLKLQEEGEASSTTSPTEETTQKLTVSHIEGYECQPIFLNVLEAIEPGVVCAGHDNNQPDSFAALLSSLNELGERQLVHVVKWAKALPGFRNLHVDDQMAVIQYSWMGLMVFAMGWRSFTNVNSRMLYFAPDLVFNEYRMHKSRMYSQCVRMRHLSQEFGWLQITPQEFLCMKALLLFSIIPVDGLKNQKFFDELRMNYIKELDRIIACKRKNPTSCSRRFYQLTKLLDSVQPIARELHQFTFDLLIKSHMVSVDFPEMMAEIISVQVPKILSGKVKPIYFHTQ
Method: (§3) Human AR cDNA cloned into pCMV vector, GRE-LUC, and CMV-renilla-LUC were used to transfect cells. HEK-293 cells (ATCC) were plated at 120,000 cells per well of a 24 well plate in DME+5% csFBS (Fisher Scientific, Waltham, Mass.). The cells were transfected using Lipofectamine (Life Technologies, Carlsbad, Calif.) with 0.25 μg GRE-LUC, 0.010 μg CMV-LUC (renilla luciferase) and 25 ng of the AR. […] Luciferase assay was performed 48 hrs after transfection. Firefly luciferase assay values were normalized to renilla luciferase values and were graphed using graphpad prism software (La Jolla, Calif.). […] The IC50 or EC50 values were determined using non-linear regression and […] logistics fitting.

[4] = target: T1, Human AR; assay: AR antagonist assay (GRE-LUC luciferase, transfected HEK-293 cells, with 0.1 nM R1881); details: for IC50: with 0.1 nM R1881; for inhibition at 1 µM: HEK293
Method: as §3

[5] = tested on: LNCaP cells; assay: Cell proliferation assay, LNCaP (CellTiter-Glo); details: 6 days
Method: as §1, §2

[6] = tested on: MR49F cells; assay: Cell proliferation assay, MR49F enzalutamide-resistant LNCaP cells (SRB); details: six days
Method: The outer wells of the 96 well plates were not used for treatment due to potential evaporation. Cells were treated with selected doses of the compounds with the final concentration of DMSO kept at 0.1%. The cells were re-treated three days later. At the end of six days of treatment, the cells were fixed using 40% w/v trichloroacetic acid and a […] (SRB) assay was performed to determine the cell viability.

[7] = tested on: COS-7 cells; assay: Cell proliferation assay, COS-7 (CellTiter-Glo); details: 3 days
Method: as §1, §2

[8] = target: GR (Homo sapiens (Human), UniProt P04150); assay: GR antagonist assay (GRE-LUC luciferase, transfected COS-7 cells, with 0.1 nM dexamethasone); details: in the presence of 0.1 nM dexamethasone; for GR antagonist assay, % of vehicle: 10 μM
Chain of GR (P04150 whole entry): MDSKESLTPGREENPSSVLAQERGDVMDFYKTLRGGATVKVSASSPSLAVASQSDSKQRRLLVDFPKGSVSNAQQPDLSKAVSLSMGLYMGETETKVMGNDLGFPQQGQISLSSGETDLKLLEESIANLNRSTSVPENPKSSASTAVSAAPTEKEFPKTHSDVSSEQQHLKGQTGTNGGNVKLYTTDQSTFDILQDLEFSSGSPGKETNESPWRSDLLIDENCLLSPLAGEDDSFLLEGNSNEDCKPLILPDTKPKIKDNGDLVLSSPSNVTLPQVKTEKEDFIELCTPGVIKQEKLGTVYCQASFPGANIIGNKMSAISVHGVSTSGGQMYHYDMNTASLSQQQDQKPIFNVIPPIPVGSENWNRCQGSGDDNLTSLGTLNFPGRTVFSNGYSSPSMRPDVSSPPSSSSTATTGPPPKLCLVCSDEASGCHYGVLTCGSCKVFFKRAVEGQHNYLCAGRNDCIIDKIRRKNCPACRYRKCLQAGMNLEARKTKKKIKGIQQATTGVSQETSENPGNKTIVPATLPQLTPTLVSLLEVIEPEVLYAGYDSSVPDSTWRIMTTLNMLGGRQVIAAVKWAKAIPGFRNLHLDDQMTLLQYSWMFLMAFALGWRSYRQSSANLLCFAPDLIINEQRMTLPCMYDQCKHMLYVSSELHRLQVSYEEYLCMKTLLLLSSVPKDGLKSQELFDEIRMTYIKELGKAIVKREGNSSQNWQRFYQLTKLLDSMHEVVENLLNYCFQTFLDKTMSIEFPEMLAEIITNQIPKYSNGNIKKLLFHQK
Method: COS-7 cells (ATCC, Manassas, Va.) were plated in 24 well plates in DME+5% csFBS without phenol red at 70,000 cells/well. Once the cells attached to the plates (typically after overnight incubation after plating), they were transfected in OPTIMEM medium (Life Technologies) using lipofectamine reagent (Life Technologies) with 0.25 μg GRE-LUC, 25 ng pCR3.1 GR, and 10 ng CMV-renilla LUC per well. Twenty-four hours after transfection, the cells were fed with DME+5% csFBS without phenol red (Fisher Scientific, Waltham, Mass.) and treated with the test compounds (1 pM to 10 μM dose range) in the presence of 0.1 nM dexamethasone (Sigma, St. Louis, Mo.). Sixteen to twenty-four hours after treatment, a luciferase assay was performed using the Dual Luciferase assay kit (Promega, Madison, Wis.). Firefly luciferase values were normalized to Renilla luciferase numbers.

[9] = tested on: 22RV1 cells; assay: Cell proliferation assay, 22RV1 (CellTiter-Glo); details: 3 days
Method: as §1, §2

[10] = tested on: TMPRSS2 expression in LNCaP-EnzR cells; assay: AR activity assay: TMPRSS2 gene expression in LNCaP-EnzR (MR49F) cells (realtime PCR); details: enzalutamide resistant LNCaP-EnzR cells, 1 and 10 μM
Method: (§4) LNCaP (ATCC) or LNCaP-EnzR (MR49F was received from Dr. Martin Gleave, University of British Columbia) cells were plated in 96 well plates at 15,000-20,000 cells/well in RPMI+1% csFBS without phenol red. Cells were treated 2 days after plating and harvested 18 hours after treatment (for TMPRSS2) or 24 hours after treatment (for PSA and FKBP5). RNA was isolated (cells to ct kit, Life Technologies), cDNA synthesized (cells to ct kit), and expression of TMPRSS2, PSA or FKBP5 and expression of GAPDH were measured using realtime PCR primers and probes (TaqMan probes, Life Technologies) by realtime PCR (ABI 7900, Life Technologies). Relative expression was calculated using ddct method.

[11] = tested on: TMPRSS2 expression in LNCaP cells; assay: AR activity assay: TMPRSS2 gene expression in LNCaP cells (realtime PCR); details: 1 and 10 μM, in the presence of 0.1 nM R1881
Method: as §4

Chain of GFP-AR (P10275 whole entry, looked up): as the sequence (P10275 whole entry) above

| Structure (SMILES) | activity at 3 µM [2] | activity at 10 µM [2] | EC50 [3] | IC50 [4] | IC50 [8] | other results |
| --- | --- | --- | --- | --- | --- | --- |
| C[C@]1(O)CC[C@H]2[C@@H]3CCC4=CC(=O)CCC4=C3C=C[C@@]21C [Compound R1881, reference compound] | – | – | – | – | – | AR localization (cytoplasmic or nuclear) [1]: nuclear |
| Cc1ncsc1C(=O)NCc1ccc(N2C(=S)N(c3ccc(C#N)c(C(F)(F)F)c3)C(=O)C2(C)C)cc1F [Compound 9] | 89% | 27% | > 10000 nM | 49.1 nM | – | AR localization (cytoplasmic or nuclear) ([1]; COS cells, GFP-AR, 30 min pre-treatment, then R1881 for four hours): nuclear; cell proliferation, % of vehicle at 3 μM ([5]; 3 μM): 55%; cell proliferation, % of vehicle at 10 μM ([5]; 10 μM): 21%; cell proliferation, % of vehicle at 3 μM ([6]; 3 μM): 53%; cell proliferation, % of vehicle at 10 μM ([6]; 10 μM): 29%; cell proliferation, % of vehicle at 3 μM ([7]; COS-7, 3 μM): 92%; cell proliferation, % of vehicle at 10 μM ([7]; COS-7, 10 μM): 99%; GR antagonist assay, % of vehicle [8]: 41%; cell proliferation, % of vehicle at 3 μM ([9]; 22RV1, 3 μM): 77%; cell proliferation, % of vehicle at 10 μM ([9]; 22RV1, 10 μM): 41% |
| CC1(C)C(=O)N(c2ccc(C#N)c(C(F)(F)F)c2)C(=S)N1c1ccc(CNC(=O)c2cncs2)cc1 [Compound 18] | – | – | > 10000 nM | 358 nM | > 10000 nM | – |
| Cc1ncsc1C(=O)NCc1ccc(N2C(=S)N(c3cnc(C#N)c(C(F)(F)F)c3)C(=O)C2(C)C)cc1Cl [Compound 38] | 59% | 56% | – | 240 nM | > 10000 nM | – |
| Cn1ccnc1C(=O)NCc1ccc(N2C(=S)N(c3ccc(C#N)c(C(F)(F)F)c3)C(=O)C2(C)C)cc1F [Compound 4] | – | – | > 10000 nM | 386 nM | – | – |
| CNC(=O)c1ccc(N2C(=S)N(c3ccc(C#N)c(C(F)(F)F)c3)C(=O)C2(C)C)cc1F [Enzalutamide, enzalutamide] | – | – | – | – | – | TMPRSS2 expression [10]: failed to reduce TMPRSS2 expression; TMPRSS2 expression [11]: inhibitory effects |
| Cc1ncc(C(=O)NCc2ccc(N3C(=S)N(c4ccc(C#N)c(C(F)(F)F)c4)C(=O)C3(C)C)cc2F)s1 [Compound 45] | 100% | 66% | – | 99 nM | > 10000 nM | inhibition at 1 µM [4]: 95% |
| CC1(C)C(=O)N(c2ccc(C#N)c(C(F)(F)F)c2)C(=O)N1c1ccc(CNC(=O)c2ccccn2)c(F)c1 [Compound 23] | 84% | 43% | – | 180 nM | > 10000 nM | – |
| CC1(C)C(=O)N(c2ccc(C#N)c(F)c2)C(=S)N1c1ccc(CNC(=O)c2ccccn2)c(F)c1 [Compound 69] | 77% | 81% | – | 380 nM | > 10000 nM | – |
| CC(C)C(=O)NCc1ccc(N2C(=S)N(c3ccc(C#N)c(C(F)(F)F)c3)C(=O)C2(C)C)cc1F [Compound 7] | 67% | 73% | – | 180 nM | > 10000 nM | – |
| Cc1ccccc1C(=O)NCc1ccc(N2C(=S)N(c3ccc(C#N)c(F)c3)C(=O)C2(C)C)cc1F [Compound 71] | 86% | 81% | – | 589 nM | > 10000 nM | – |
| Cc1ncsc1C(=O)NCc1ccc(N2C(=S)N(c3ccc(C#N)c(C(F)(F)F)c3)C(=O)C2(C)C)cc1 [Compound 39] | 90% | 87% | – | 200 nM | > 10000 nM | – |
| CC1(C)C(=O)N(c2ccc(C#N)c(C(F)(F)F)c2)C(=S)N1c1ccc(CNC(=O)c2ncccn2)cc1 [Compound 19] | – | – | > 10000 nM | 453 nM | > 10000 nM | – |
| Cc1ncsc1C(=O)NCc1ccc(N2C(=S)N(c3ccc(C#N)c(F)c3)C(=O)C2(C)C)cc1F [Compound 68] | 89% | 85% | – | 120 nM | – | GR antagonist assay, % of vehicle [8]: 84% |
| CC1(C)C(=O)N(c2ccc(C#N)c(C(F)(F)F)c2)C(=S)N1c1ccc(CNC(=O)C2CC2)c(F)c1 [Compound 11] | 103% | 79% | – | 120 nM | > 10000 nM | – |
| Cn1nccc1C(=O)NCc1ccc(N2C(=S)N(c3ccc(C#N)c(C(F)(F)F)c3)C(=O)C2(C)C)cc1F [Compound 42] | 98% | 60% | – | 77 nM | > 10000 nM | inhibition at 1 µM [4]: 95% |
| CC(C)(C)C(=O)NCc1ccc(N2C(=S)N(c3ccc(C#N)c(C(F)(F)F)c3)C(=O)C2(C)C)cc1F [Compound 6] | 79% | 101% | > 10000 nM | 778 nM | > 10000 nM | – |
| CC1(C)C(=O)N(c2ccc(C#N)c(C(F)(F)F)c2)C(=S)N1c1ccc(CNC(=O)c2cncnc2)c(F)c1 [Compound 15] | 81% | 70% | – | 320 nM | > 10000 nM | – |
| Cn1ccnc1C(=O)NCc1ccc(N2C(=O)N(c3ccc(C#N)c(C(F)(F)F)c3)C(=O)C2(C)C)cc1F [Compound 1] | – | – | > 10000 nM | 968 nM | – | – |
| Cn1cncc1C(=O)NCc1ccc(N2C(=S)N(c3ccc(C#N)c(C(F)(F)F)c3)C(=O)C2(C)C)cc1F [Compound 44] | 87% | 71% | – | 120 nM | > 10000 nM | – |
| CC1(C)C(=O)N(c2ccc(C#N)c(C(F)(F)F)c2)C(=S)N1c1ccc(CNC(=O)c2cccnc2)c(F)c1 [Compound 12] | 95% | 61% | > 10000 nM | 108 nM | > 10000 nM | – |
| CC1(C)C(=O)N(c2ccc(C#N)c(C(F)(F)F)c2)C(=S)N1c1ccc(CNC(=O)c2cncs2)c(F)c1 [Compound 5] | 99% | 96% | – | 93 nM | > 10000 nM | – |
